Experimental data from ChEMBL document CHEMBL5046238, “Synthesis, biological evaluation, and in silico studies of potential activators of apoptosis and carbonic anhydrase inhibitors on isatin-5-sulfonamide scaffold” (Eur J Med Chem, 2022).
Active and inactive are the calls of the source. No cut-off for these calls is given here.

Experiments:
[1] = Antiproliferative activity against human K562/4 cells assessed as growth inhibition measured after 72 hrs by MTT assay; conditions: K562/4, 72 h
MCF7 [2] = test: Antiproliferative activity against human MCF7 cells assessed as growth inhibition measured after 72 hrs by MTT assay; conditions: MCF7, 72 h
K562 = test: Antiproliferative activity against human K562 cells assessed as growth inhibition measured after 72 hrs by MTT assay; conditions: K562, 72 h
MCF7 [3] = test: Antiproliferative activity against human MCF7 cells assessed as growth inhibition under hypoxia conditions measured after 72 hrs by MTT assay; conditions: MCF7, 72 h
MDA-MB-231 [4] = test: Antiproliferative activity against human MDA-MB-231 cells assessed as growth inhibition under normoxia conditions measured after 72 hrs by MTT assay; conditions: MDA-MB-231, 72 h
MDA-MB-231 [5] = test: Antiproliferative activity against human MDA-MB-231 cells assessed as growth inhibition under hypoxia conditions measured after 72 hrs by MTT assay; conditions: MDA-MB-231, 72 h
HCT-116 [6] = test: Antiproliferative activity against human HCT-116p53KO subline assessed as growth inhibition measured after 72 hrs by MTT assay; conditions: HCT-116, 72 h
MCF7 [7] = test: Induction of apoptosis in human MCF7 cells assessed as NFkappaB activity upto 5 uM measured after 48 hrs by immunoblotting analysis; format: functional, cell-based; conditions: dose microM <=5, time 48.0 hrs
MCF7 [8] = test: Induction of apoptosis in human MCF7 cells assessed as PARP cleavage upto 5 uM measured after 48 hrs by immunoblotting analysis; format: functional, cell-based; conditions: dose microM <=5, time 48.0 hrs
MCF7 [9] = test: Induction of apoptosis in human MCF7 cells assessed as decrease in Bcl2 expression upto 5 uM measured after 48 hrs by immunoblotting analysis; format: functional, cell-based; conditions: dose microM <=5, time 48.0 hrs
MCF7 [10] = test: Induction of apoptosis in human MCF7 cells assessed as […] in BAD protein expression upto 5 uM measured after 48 hrs by immunoblotting analysis; format: functional, cell-based; conditions: dose microM <=5, time 48.0 hrs
MCF7 [11] = test: Induction of apoptosis in human MCF7 cells assessed as decrease in ERalpha protein expression upto 5 uM measured after 48 hrs by immunoblotting analysis; format: functional, cell-based; conditions: dose microM <=5, time 48.0 hrs
HCT-116 [12] = test: cells; conditions: Homo sapiens, HCT-116, 72 h
Description: Antiproliferative activity against human HCT-116 assessed as growth inhibition measured after 72 hrs by MTT assay

Carbonic anhydrase 9 = Carbonic anhydrase 9 (Homo sapiens, UniProt Q16790); test: Inhibition of human CA9 preincubated for 15 mins by phenol red dye based stopped flow CO2 hydration assay
T47D [13] = test: Antiproliferative activity against human T47D cells assessed as growth inhibition under normoxia conditions measured after 72 hrs by MTT assay
T47D [14] = test: Antiproliferative activity against human T47D cells assessed as growth inhibition under hypoxia conditions measured after 72 hrs by MTT assay
[15] = Cytotoxicity against human MCF-10A assessed as cell viability under normoxia conditions measured after 72 hrs by MTT assay; format: toxicity, cell-based; conditions: MCF-10A cells
[16] = Cytotoxicity against human MCF-10A assessed as cell viability under hypoxia conditions measured after 72 hrs by MTT assay; format: toxicity, cell-based; conditions: MCF-10A cells
Carbonic anhydrase 12 = Carbonic anhydrase 12 (Homo sapiens, UniProt O43570); test: Inhibition of human CA12 preincubated for 15 mins by phenol red based stopped flow CO2 hydration assay
Sequence of Carbonic anhydrase 12 (O43570 whole entry): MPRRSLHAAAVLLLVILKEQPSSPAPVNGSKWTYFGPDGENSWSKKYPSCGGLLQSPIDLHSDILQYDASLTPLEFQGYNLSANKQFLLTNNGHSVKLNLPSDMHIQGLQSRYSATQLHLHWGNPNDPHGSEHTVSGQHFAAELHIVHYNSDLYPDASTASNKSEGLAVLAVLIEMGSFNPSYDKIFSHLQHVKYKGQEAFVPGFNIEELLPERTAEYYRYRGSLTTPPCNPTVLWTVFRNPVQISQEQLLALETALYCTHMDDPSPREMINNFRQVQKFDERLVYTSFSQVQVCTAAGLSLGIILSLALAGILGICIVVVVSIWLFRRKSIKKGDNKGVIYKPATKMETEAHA

Structure (SMILES) | IC50 [1] [µM] | IC50 (MCF7 [2]) [µM] | IC50 (K562) [µM] | IC50 (MCF7 [3]) [µM] | IC50 (MDA-MB-231 [4]) [µM] | IC50 (MDA-MB-231 [5]) [µM] | IC50 (HCT-116 [6]) [µM] | Activity (MCF7 [7]) | Activity (MCF7 [8]) | Activity (MCF7 [9]) | Activity (MCF7 [10]) | Activity (MCF7 [11]) | IC50 (HCT-116 [12]) [µM] | Ki (Carbonic anhydrase 9) [µM] | IC50 (T47D [13]) [µM] | IC50 (T47D [14]) [µM] | IC50 at 72 h [15] [µM] | IC50 at 72 h [16] [µM] | Ki (Carbonic anhydrase 12) [µM]
O=C1C(=O)N(Cc2ccc(Cl)c(Cl)c2)c2ccccc21 | 48 | > 50 | 20 | > 50 | > 50 | > 50 | > 50 | inactive | Active | Active | Active | inactive | 38 | – | – | – | – | – | –
NS(=O)(=O)c1ccc2c(c1)C(=O)C(=O)N2Cc1ccc(F)cc1Cl | 32 | 13.3 | 11 | – | – | – | – | – | – | – | – | – | – | 0.292 | – | – | – | – | –
COc1cccc2c1C(=O)c1c(O)c3c(c(O)c1C2=O)C[C@@](O)(C(=O)CO)C[C@@H]3O[C@H]1C[C@H](N)[C@H](O)[C@H](C)O1 [DOXORUBICIN] | – | 0.31 | – | 0.37 | 0.33 | 0.25 | 0.8 | – | – | – | – | – | 0.3 | – | 0.16 | 0.18 | 0.047 | 0.051 | –
NS(=O)(=O)c1ccc2c(c1)C(=O)C(=O)N2Cc1cc(C(F)(F)F)ccc1F | 19.8 | 12 | 9 | – | – | – | – | – | – | – | – | – | – | 0.211 | – | – | – | – | > 10
NS(=O)(=O)c1ccc2c(c1)C(=O)C(=O)N2Cc1cccc(C(F)(F)F)c1 | 19.8 | 8.4 | 9.8 | 5.9 | 14.2 | 17.6 | 30 | – | – | – | – | – | 17.7 | 0.244 | 6.3 | > 50 | – | – | > 10
NS(=O)(=O)c1ccc2c(c1)C(=O)C(=O)N2 | > 50 | > 50 | > 50 | – | – | – | – | – | – | – | – | – | – | 1.46 | – | – | – | – | –
COc1ccc(CN2C(=O)C(=O)c3cc(S(N)(=O)=O)ccc32)cc1 | 43 | 5.1 | 9 | 4.6 | 28.4 | 40.8 | 30 | – | – | – | – | – | 27 | 1.03 | 20.7 | > 50 | 4 | 3.2 | –
NS(=O)(=O)c1ccc2c(c1)C(=O)C(=O)N2Cc1c(F)c(F)c(F)c(F)c1F | > 50 | 10.2 | 8 | – | – | – | – | – | – | – | – | – | – | 0.195 | – | – | – | – | –
NS(=O)(=O)c1ccc2c(c1)C(=O)C(=O)N2Cc1ccc(SC(F)(F)F)cc1 | 6.5 | 2.6 | 4.5 | 3.2 | 6.9 | 10.8 | 15 | Active | Active | Active | inactive | Dose-Dependent Effect | 14.5 | 1.77 | 6.3 | 20.3 | 6.4 | 8.6 | > 10
NS(=O)(=O)c1ccc2c(c1)CCC2NC(=O)c1c(F)c(F)c(F)c(F)c1F (centres undefined) | 18 | 9.2 | 12.5 | 13.1 | 26.6 | 25.7 | 45 | – | – | – | – | – | 18 | – | > 50 | > 50 | > 50 | > 50 | –
NS(=O)(=O)c1ccc2c(c1)C(=O)C(=O)N2Cc1ccc(Cl)cc1Cl | 18 | 7.8 | 8.8 | 5.6 | 7 | 8.4 | 20 | – | – | – | – | – | 17.5 | 0.163 | 12 | 21.8 | – | – | –
NS(=O)(=O)c1ccc2c(c1)C(=O)C(=O)N2Cc1ccc(Cl)cc1 | 50 | 6 | 14 | 4.9 | 22 | 19.1 | 30 | – | – | – | – | – | 23 | 0.26 | 18.4 | 42.5 | 6.9 | 6.2 | –
NS(=O)(=O)c1ccc2c(c1)C(=O)C(=O)N2Cc1ccc([N+](=O)[O-])cc1 | > 50 | > 50 | > 50 | – | – | – | – | – | – | – | – | – | – | 2.04 | – | – | – | – | –
